This note sets out measurements from patent US20240287065A1, “COMPOUND AS CDK KINASE INHIBITOR AND USE THEREOF” (TYK MEDICINES (ZHENGZHOU) , INC., priority 2021, published 2024).

pIC50: −log10 of the molar value.

One assay deals with HCC1806 cells. Put plainly: Cell proliferation inhibition assay (MTT, 7 days). The format is cell-based. To be noted: Homo sapiens, HCC1806, 168 h, HCC1086 [sic], 7 days incubation. In a few lines:
(§1)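 Cells were seeded per well at 3000 (MCF7, T47D), 2500 (OVCAR3) or 2000 (HCC1806) and attached overnight. Nine 3-fold compound dilutions (10000-1.52 nM before addition to cells, 0.1% DMSO medium) were applied for 7 days, refreshed on day 4, in 4 replicates. MTT (3 h) was read at 570 nm, normalised to DMSO and blank, and IC50 fitted by three-parameter curve.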

The subject of another assay is MCF7 cells. Put plainly: Cell proliferation inhibition assay (MTT, 7 days). The format is cell-based. To be noted: Homo sapiens, 168 h, 7 days incubation. In a few lines:
as §1

For another assay, the system named is OVCAR3 cells. Put plainly: Cell proliferation inhibition assay (MTT, 7 days). The format is cell-based. To be noted: Homo sapiens, OVCAR-3, 168 h, 7 days incubation. In a few lines:
as §1

The test system of the next assay is T47D cells. Nature of the assay: Cell proliferation inhibition assay (MTT, 7 days). The note with it: Homo sapiens, 168 h, 7 days incubation. The format is cell-based. In a few lines: as §1
In the next assay the target is CDK2/CycE1 (Homo sapiens, UniProt P24941). Nature of the assay: Enzyme activity test. Format: biochemical. In a few lines: (§2)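 Compounds ([…] DMSO stock) were preincubated 30 min at room temperature with enzyme, substrate and cofactor before ATP addition. The reaction ran 150 min at room temperature and was read on EZ Reader (mobility shift). Percent inhibition was calculated against DMSO and no-enzyme controls.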

In another assay the target is CDK4/CycD3 (Homo sapiens, UniProt P11802). Nature of the assay: Enzyme activity test. Format: biochemical. Put shortly: as §2
The target in another assay is CDK6/CycD1 (Homo sapiens, UniProt Q00534). Put plainly: Enzyme activity test. The format is biochemical. In a few lines: as §2
The subject of another assay is xMCF-7/Palbo-R cells. Put plainly: xMCF-7/Palbo-R xenograft tumor model. Format: in vivo. To be noted: oral tube feeding twice daily for 20 days, Balb/c nude female mice. Here is the method:
To establish a xenograft tumor model, 1×10^7 xMCF-7/Palbo-R cells were suspended in 0.2 mL of a mixture of Matrigel and […] (1:1) and injected subcutaneously into 6-8 week-old Balb/c nube female mice. Tumor growth was observed periodically, and the volume (volume=½×(length×width 2)) was measured with a vernier caliper. When the tumors grew to an average volume of 100˜150 mm3, the drug was administered to mice (12 days after inoculation) in random groups according to the tumor size and their body weights. […] The drugs were administered by oral tube feeding twice daily for 20 days. Tumor volume and animal weight were measured twice a week and continued until the end of the experiment. Dosing day was defined as day 0. Measurement time points were day 0, day 3, day 7, day 10, day 14, day 17 and day 20. All mice were euthanized by cervical dislocation. At the end of the experiment, tumors were collected and weighed to calculate TGI values (see Table 4).

Chain of CDK4/CycD3 (P11802 whole entry, species assumed): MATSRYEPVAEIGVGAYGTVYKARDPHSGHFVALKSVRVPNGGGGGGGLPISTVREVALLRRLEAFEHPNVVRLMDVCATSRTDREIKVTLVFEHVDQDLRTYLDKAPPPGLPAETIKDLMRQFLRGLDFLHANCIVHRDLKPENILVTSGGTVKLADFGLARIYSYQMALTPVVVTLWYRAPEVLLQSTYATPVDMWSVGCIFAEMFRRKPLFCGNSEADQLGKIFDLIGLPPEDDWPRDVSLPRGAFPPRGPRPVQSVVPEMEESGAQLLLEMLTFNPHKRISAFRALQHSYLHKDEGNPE
Chain of CDK4/CycD3 (P30281 whole entry partner, species assumed): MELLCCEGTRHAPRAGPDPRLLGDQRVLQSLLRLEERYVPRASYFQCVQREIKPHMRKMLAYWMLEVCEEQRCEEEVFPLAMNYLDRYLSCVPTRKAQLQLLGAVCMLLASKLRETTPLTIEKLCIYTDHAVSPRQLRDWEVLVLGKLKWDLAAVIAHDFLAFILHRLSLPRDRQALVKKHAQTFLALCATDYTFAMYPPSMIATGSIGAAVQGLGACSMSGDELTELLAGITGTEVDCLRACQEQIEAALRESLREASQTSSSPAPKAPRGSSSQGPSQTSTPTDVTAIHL
Chain of CDK6/CycD1 (Q00534 whole entry, species assumed): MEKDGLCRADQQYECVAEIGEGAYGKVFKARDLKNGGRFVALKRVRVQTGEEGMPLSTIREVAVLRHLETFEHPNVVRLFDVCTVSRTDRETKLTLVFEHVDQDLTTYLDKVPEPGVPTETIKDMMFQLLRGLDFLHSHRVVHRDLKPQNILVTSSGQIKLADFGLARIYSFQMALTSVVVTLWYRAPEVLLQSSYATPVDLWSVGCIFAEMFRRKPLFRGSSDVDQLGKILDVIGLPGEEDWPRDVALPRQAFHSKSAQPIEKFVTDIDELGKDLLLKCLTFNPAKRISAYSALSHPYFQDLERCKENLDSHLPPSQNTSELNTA
Chain of CDK6/CycD1 (P24385 whole entry partner, species assumed): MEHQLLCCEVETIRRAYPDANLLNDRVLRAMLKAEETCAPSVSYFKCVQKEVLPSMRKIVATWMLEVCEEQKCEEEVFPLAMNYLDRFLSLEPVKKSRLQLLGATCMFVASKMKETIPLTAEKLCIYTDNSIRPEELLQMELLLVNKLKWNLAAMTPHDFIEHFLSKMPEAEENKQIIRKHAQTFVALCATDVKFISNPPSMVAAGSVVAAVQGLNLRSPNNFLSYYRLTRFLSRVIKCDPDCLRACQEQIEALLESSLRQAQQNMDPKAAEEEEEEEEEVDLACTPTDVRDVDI

Take `C[C@@]1(O)CCC[C@H]1n1c(=O)c(OC(F)F)cc2cnc(NC3CCN(S(C)(=O)=O)CC3)nc21` [Example 3]: the IC50 (in general, the midpoint of a concentration-inhibition curve) is 50 to 5200 nM in the assay on HCC1806 cells, 50 to 5200 nM in the assay with MCF7 cells, at most 50 nM in the assay with OVCAR3 cells and 50 to 5200 nM in the assay on T47D cells. Also, the pIC50 against CDK2/CycE1, against CDK4/CycD3 and at CDK6/CycD1 was above 8.00 throughout. Also, the inhibition of tumour growth (TGI) – broadly, the reduction of tumour growth relative to the control group – with xMCF-7/Palbo-R cells (10 mg/kg) is 64.4%; in the assay on xMCF-7/Palbo-R cells (20 mg/kg) it was 64.6%.
Take `C[C@@]1(O)CCC[C@H]1n1c(=O)c(C(F)F)cc2cnc(NC3CCN(S(C)(=O)=O)CC3)nc21` [PF-06873600, reference compound]: the IC50 in the assay on HCC1806 cells is 50 to 5200 nM; in the assay with MCF7 cells, 50 to 5200 nM; in the assay on OVCAR3 cells, 50 to 5200 nM; in the assay on T47D cells, at most 50 nM. The tumour growth inhibition (TGI) in the assay with xMCF-7/Palbo-R cells (10 mg/kg) is 36.2%.
